Source: patent US20050158818A1, “Cephalosporin C acylases” (ANTIBIOTICOS S.p.A., priority 2004, published 2005)
Where a chain is given by its changes, count along the chain named. Names may count otherwise. Where two headings read alike, the source gives them in different places.

Legend:
[1] = target: HisVAC cephalosporin C acylase (Pseudomonas N176 derived, parent Seq. ID #1) variant A215Y; test: Product inhibition of mutant A215Y; format: biochemical
Procedure: (§1) Kinetics parameters of the mutants and HisVAC acylase were determined measuring the hydrolysis of cephalosporin C or glutaryl 7-ACA in 0.1 M phosphate buffer solution, pH 8.0 at 37° C. (then converted in units at 25° C.). The amount of 7-ACA is determined spectrophotometrically, using a standard curve, measuring the yellow intensity at 415 nm (Schiff base), resulting upon reaction with p-dimethylaminobenzaldehyde, using modified Bulasingham method (Biochem. Biophys. Acta 276, 250, 1972).

[2] = target: HisVAC cephalosporin C acylase (Pseudomonas N176 derived, parent Seq. ID #1) variant A215F; test: Product inhibition of mutant A215F; format: biochemical
Procedure: as §1

[3] = test system: HisVAC cephalosporin C acylase (Pseudomonas N176 derived, parent Seq. ID #1) variant H296S; test: Hydrolysis kinetics of mutant H296S; format: biochemical; details: for Km: 0.1 M phosphate; for Km / Vmax: pH 8.0, 37° C.; for Vmax: converted in units at 25° C.; for Inhibition after: substrate concentration after which inhibition occurs
Procedure: (§2) 1. Site-Directed Mutagenesis
as §1
(§3) One acylase unit is the amount of enzyme (in solution or immobilized) which, under the assay conditions, produces one micromole of 7-ACA/minute.

[4] = test system: HisVAC cephalosporin C acylase (Pseudomonas N176 derived, parent Seq. ID #1) variant A215F; test: Hydrolysis kinetics of mutant A215F; format: biochemical; details: for Km: 0.1 M phosphate; for Km / Vmax: pH 8.0, 37° C.; for Vmax: converted in units at 25° C.
Procedure: as §2, §1, §3

[5] = test system: HisVAC cephalosporin C acylase, wild-type (designed on Pseudomonas N176 acylase, Phe270, C-terminal LEHHHHHH), Seq. ID #1; test: Hydrolysis kinetics of wild-type HisVAC acylase; format: biochemical; details: for Km: 0.1 M phosphate; for Km / Vmax: pH 8.0, 37° C.; for Vmax: converted in units at 25° C.; for Inhibition after: substrate concentration after which inhibition occurs
Procedure: Said sequence was introduced in order to make the subsequent chromatographic purification easier, using pET24 plasmid as the cloning and expression vector. This plasmid is resistant to kanamycin and is able to insert a “His-Tag sequence” at the C-terminus of the protein and a “T7-Tag sequence” at the N-terminus.
as §1, §3

[6] = test system: HisVAC cephalosporin C acylase (Pseudomonas N176 derived, parent Seq. ID #1) variant A215V; test: Hydrolysis kinetics of mutant A215V; format: biochemical; details: for Km: 0.1 M phosphate; for Km / Vmax: pH 8.0, 37° C.; for Vmax: converted in units at 25° C.; for Inhibition after: substrate concentration after which inhibition occurs
Procedure: as §2, §1, §3

[7] = test system: HisVAC cephalosporin C acylase (Pseudomonas N176 derived, parent Seq. ID #1) variant A215L; test: Hydrolysis kinetics of mutant A215L; format: biochemical; details: for Km: 0.1 M phosphate; for Km / Vmax: pH 8.0, 37° C.; for Vmax: converted in units at 25° C.; for Inhibition after: substrate concentration after which inhibition occurs
Procedure: as §2, §1, §3

[8] = test system: HisVAC cephalosporin C acylase (Pseudomonas N176 derived, parent Seq. ID #1) variant A215E; test: Hydrolysis kinetics of mutant A215E; format: biochemical; details: for Km: 0.1 M phosphate; for Km / Vmax: pH 8.0, 37° C.; for Vmax: converted in units at 25° C.
Procedure: as §2, §1, §3

[9] = test system: HisVAC cephalosporin C acylase (Pseudomonas N176 derived, parent Seq. ID #1) variant H296T; test: Hydrolysis kinetics of mutant H296T; format: biochemical; details: for Km: 0.1 M phosphate; for Km / Vmax: pH 8.0, 37° C.; for Vmax: converted in units at 25° C.; for Inhibition after: substrate concentration after which inhibition occurs
Procedure: as §2, §1, §3

[10] = test system: HisVAC cephalosporin C acylase (Pseudomonas N176 derived, parent Seq. ID #1) variant A215Y; test: Hydrolysis kinetics of mutant A215Y; format: biochemical; details: for Km: 0.1 M phosphate; for Km / Vmax: pH 8.0, 37° C.; for Vmax: converted in units at 25° C.; for Inhibition after: substrate concentration after which inhibition occurs
Procedure: as §2, §1, §3

[11] = test system: HisVAC cephalosporin C acylase (Pseudomonas N176 derived, parent Seq. ID #1) variant H296N; test: Hydrolysis kinetics of mutant H296N; format: biochemical; details: for Km: 0.1 M phosphate; for Km / Vmax: pH 8.0, 37° C.; for Vmax: converted in units at 25° C.; for Inhibition after: substrate concentration after which inhibition occurs
Procedure: as §2, §1, §3

[12] = Stability of the enzyme (pH, temperature); format: physicochemical
Procedure: (§4) Purified HisVAC is stable after 120 min incubation at pH ranging from 5 to 9. Enzymatic activity increases as a function of the pH of the reaction solution, in the range 5-10, reaching the highest value at 40° C. after 30 minutes reaction.

[13] = Acylase kinetics, hydrolysis of glutaryl 7-ACA (7-ACA determined at 415 nm with p-dimethylaminobenzaldehyde); format: biochemical
Procedure: as §1, §3

[14] = Dependence of enzymatic activity on pH and temperature; format: biochemical; details: after 30 minutes reaction
Procedure: as §4

[15] = Conversion of cephalosporin C to 7-ACA with acylase in solution (HPLC); format: biochemical; details: 2.27 g/l cephalosporin C, 167.2 total units
Procedure: 0.053 g cephalosporin C, dihydrate sodium salt (86% purity) is dissolved in 20 ml of 100 mM potassium phosphate buffer, pH 8 (2.27 g/l, assuming a 100% purity) and added to 6.4 ml purified acylase (167.2 total units). The mixture is incubated at 20° C., under stirring, keeping the pH at 8 by addition of diluted sodium hydroxide.

[16] = Acylase kinetics, hydrolysis of cephalosporin C (7-ACA determined at 415 nm with p-dimethylaminobenzaldehyde); format: biochemical; details: substrate Cef C
Procedure: as §1, §3

[17] = substrate Gl-7-ACA, read-out: Ki
[18] = substrate concentration after which inhibition occurs

In the case of `O=C(O)CCCC(=O)O` [Glutaric Acid], the Ki [1, 17] is reported as 6.1 mM and the Ki ([2]; substrate Gl-7-ACA) is reported as 2.1 mM.

With `CC(=O)OCC1=C(C(=O)O)N2C(=O)[C@@H](NC(=O)CCC[C@@H](N)C(=O)O)[C@H]2SC1` [Cef C, cephalosporin C] the Km [3] was 7.7 mM, the Vmax [3] was 0.63 U/mg and the Inhibition after [3] was 25 mM. The Km [4] was 7.7 mM, the Vmax [4] was 0.21 U/mg and the Km [5] was 8.2 mM. For the same molecule, the Vmax [5] was 0.23 U/mg, the Inhibition after [5] was 50 mM and the Km [6] was 8.3 mM. It also gave a Vmax [6] of 0.78 U/mg, an Inhibition after [6] of 50 mM and a Km [7] of 9.5 mM. For the same molecule, the Vmax [7] was 0.75 U/mg, the Inhibition after [7] was 12.5 mM and the Km [8] was 3.2 mM. For the same molecule, the Vmax [8] was 0.16 U/mg, the Km [9] was 4.8 mM and the Vmax [9] was 0.2 U/mg. The Inhibition after [9] was 60 mM, the Km [10] was 6.9 mM and the Vmax [10] was 1.8 U/mg. The Inhibition after [10] was 25 mM, the Km [11] was 5.2 mM and the Vmax [11] was 0.27 U/mg. For the same molecule, the Inhibition after [11] was 50 mM.

With `CC(=O)OCC1=C(C(=O)O)N2C(=O)[C@@H](N)[C@H]2SC1` [7-ACA, 7-amino-cephalosporanic acid] the Ki [1, 17] was 11.3 mM and the Ki ([2]; substrate Gl-7-ACA) was 4.7 mM.

`CC(=O)OCC1=C(C(=O)O)N2C(=O)[C@@H](NC(=O)CCCC(=O)O)[C@H]2SC1` [Gl-7-ACA, glutaryl-7-ACA] showed a Km [3] of 0.7 mM, a Vmax [3] of 2.0 U/mg and an Inhibition after [3] of 25 mM. It also gave a Km [4] of 0.85 mM, a Vmax [4] of 3.3 U/mg and an Inhibition after [4, 18] of 50 mM. It also gave a Km [5] of 1.6 mM, a Vmax [5] of 24.2 U/mg and an Inhibition after [5] of 12.5 mM. It also gave a Km [6] of 1.2 mM, a Vmax [6] of 12.5 U/mg and an Inhibition after [6] of 12.5 mM. It also gave a Km [7] of 1.7 mM, a Vmax [7] of 6.2 U/mg and an Inhibition after [7] of 12.5 mM. It also gave a Km [8] of 1 mM, a Vmax [8] of 2 U/mg and an Inhibition after [8, 18] of 25 mM. For the same molecule, the Km [9] was 2 mM, the Vmax [9] was 0.67 U/mg and the Inhibition after [9] was 50 mM. The Km [10] was 1.7 mM, the Vmax [10] was 16 U/mg and the Inhibition after [10] was 12.5 mM. The Km [11] was 2.8 mM, the Vmax [11] was 4.3 U/mg and the Inhibition after [11] was 50 mM.

In the case of `N[C@H](CCCC(=O)O)C(=O)O` [α-Aminoadipic], the Ki ([1]; substrate Cef C) is reported as “no inhibition” and the Ki ([2]; substrate Cef C) is reported as 85.2 mM.

B1: wild-type: Designed cephalosporin C acylase based on Pseudomonas N176 acylase, Phe at 270, C-terminal LEHHHHHH tag (Seq. ID #1) (protein)
chain: MTMAANTDRAVLQAALPPLSGSLPIPGLSASVRVRRDAWGIPHIKASGEADAYRALGFVHSQDRLFQMELTRRKALGRAAEWLGAEAAEADILVRRLGMEKVCRRDFEALGVEAKDMLRAYVAGVNAFLASGAPLPVEYGLLGAEPEPWEPWHSIAVMRRLGLLMGSVWFKLWRMLALPVVGAANALKLRYDDGGRDLLCIPPGAEADRLEADLATLRPAVDALLKAMGGDASDAAGGGSNNWAVAPGRTATGRPILAGDPHRVFEIPGFYAQHHLACDRFDMIGLTVPGVPGFPHFAHNGKVAYCVTHAFMDIHDLYLEQFAGEGRTARFGNDFEPVAWSRDRIAVRGGADREFDIVETRHGPVIAGDPRDGAALTLRSVQFAETDLSFDCLTRMPGASTVAQLYDATRGWGLIDHNLVAGDVAGSIGHLVRARVPSRPRENGWLPVPGWSGEHEWRGWIPHEAMPRVIDPPGGIIVTANNRVVADDHPDYLCTDCHPPYRAERIMKRLVANPAFAVDDAAAIHADTLSPHVGLLRRRLEALGARDDSAAEGLRQMLVAWDGRMDAASEVASAYNAFRRALTRLVTDRSGLEQAISHPFAAVAPGVSPQGQVWWAVPTLLRDDDAGMLKGWSWDQALSEALSVASQNLTGRSWGEEHRPRFTHPLATQFPAWAGLLNPASRPIGGDGDTVLANGLVPSAGPQATYGALSRYVFDVGNWDNSRWVVFHGASGHPASAHYADQNAPWSDCAMVPMLYSWDRIAAEAVTSQELVPALEHHHHHH
modifications: C-terminal LEHHHHHH tag; Pseudomonas
For B1, the “Stability to pH” value ([12]; 120 min incubation at pH ranging from 5 to 9) was “stable”, the “Specific activity of purified enzyme” value ([13]; glutaryl-7ACA as the substrate, after HiTrap Chelating purification) was 6.5 U/mg proteins and the “Temperature of highest enzymatic activity” value [14] was 40 °C. For the same molecule, the “Maximum conversion to 7-ACA” value ([15]; 100 mM potassium phosphate pH 8, 20° C., HPLC) was 92.8% and the “Time to maximum conversion to 7-ACA” value ([15]; pH 8, 20° C.) was 150 min.

B2: A215Y: HisVAC mutant, alanine 215 replaced with Tyr (protein)
chain: B1 chain with A215Y
With B2 the Thermal stability ([12]; temperatures higher than 25° C.) was “more stable”.

B3: A215Y-H296S: HisVAC double mutant, alanine 215 replaced with Tyr and histidine 296 replaced with Ser (protein)
chain: B1 chain with A215Y, H296S
For B3, the Km ([16]; 0.1 M phosphate buffer pH 8.0, 37° C.) was 10 mM, the “Vmax (U/mg)” value ([16]; 0.1 M phosphate buffer pH 8.0, 37° C. (converted in units at 25° C.)) was 0.66 U/mg and the Inhibition after ([16]; substrate concentration after which inhibition is seen) was 40 mM. For the same molecule, the Km ([13]; substrate Gl-7-ACA, 0.1 M phosphate buffer pH 8.0, 37° C.) was 4 mM, the “Vmax (U/mg)” value ([13]; substrate Gl-7-ACA, 0.1 M phosphate buffer pH 8.0, 37° C. (converted in units at 25° C.)) was 2.2 U/mg and the Inhibition after ([13]; substrate Gl-7-ACA, substrate concentration after which inhibition is seen) was 25 mM.
